According to ChEMBL document CHEMBL2407028, “Discovery of novel oxazolidinedione derivatives as potent and selective mineralocorticoid receptor antagonists” (Bioorg Med Chem Lett, 2013):

What was measured:
Progesterone receptor [1] = target: T1, Progesterone receptor (Homo sapiens, UniProt P06401); assay: Antagonist activity at progesterone receptor beta (unknown origin) by NH Pro assay
T1 sequence (P06401 whole entry): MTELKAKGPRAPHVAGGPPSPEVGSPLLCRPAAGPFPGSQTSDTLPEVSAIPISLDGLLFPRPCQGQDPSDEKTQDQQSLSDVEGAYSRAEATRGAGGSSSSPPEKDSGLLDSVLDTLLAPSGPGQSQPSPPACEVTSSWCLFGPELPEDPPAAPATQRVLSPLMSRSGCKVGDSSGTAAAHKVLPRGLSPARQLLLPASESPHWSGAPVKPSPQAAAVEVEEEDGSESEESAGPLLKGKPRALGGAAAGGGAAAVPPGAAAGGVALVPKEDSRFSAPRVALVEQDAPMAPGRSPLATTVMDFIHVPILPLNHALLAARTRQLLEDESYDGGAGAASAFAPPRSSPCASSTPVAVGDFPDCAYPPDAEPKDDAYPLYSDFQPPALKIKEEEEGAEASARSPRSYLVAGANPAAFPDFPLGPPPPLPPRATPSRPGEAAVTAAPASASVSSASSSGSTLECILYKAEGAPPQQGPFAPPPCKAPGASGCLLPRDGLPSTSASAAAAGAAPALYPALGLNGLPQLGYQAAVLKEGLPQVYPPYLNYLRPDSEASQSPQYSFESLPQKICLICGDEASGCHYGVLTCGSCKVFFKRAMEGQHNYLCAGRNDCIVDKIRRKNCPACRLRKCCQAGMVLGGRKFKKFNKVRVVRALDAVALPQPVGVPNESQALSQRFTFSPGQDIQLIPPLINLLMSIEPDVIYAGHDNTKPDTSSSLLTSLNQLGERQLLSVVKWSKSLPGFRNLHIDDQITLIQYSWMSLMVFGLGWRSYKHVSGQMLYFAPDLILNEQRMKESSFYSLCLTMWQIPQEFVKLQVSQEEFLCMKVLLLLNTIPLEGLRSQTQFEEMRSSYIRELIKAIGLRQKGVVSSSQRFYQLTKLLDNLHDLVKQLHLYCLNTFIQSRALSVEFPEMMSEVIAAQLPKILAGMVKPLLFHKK

Progesterone receptor [2] = target: T1, Progesterone receptor; assay: Agonist activity at progesterone receptor beta (unknown origin) by NH Pro assay
Estrogen receptor = target: T2, Estrogen receptor (Homo sapiens, UniProt P03372); assay: Agonist activity at estrogen receptor alpha (unknown origin) by NH Pro assay
T2 sequence (P03372 whole entry): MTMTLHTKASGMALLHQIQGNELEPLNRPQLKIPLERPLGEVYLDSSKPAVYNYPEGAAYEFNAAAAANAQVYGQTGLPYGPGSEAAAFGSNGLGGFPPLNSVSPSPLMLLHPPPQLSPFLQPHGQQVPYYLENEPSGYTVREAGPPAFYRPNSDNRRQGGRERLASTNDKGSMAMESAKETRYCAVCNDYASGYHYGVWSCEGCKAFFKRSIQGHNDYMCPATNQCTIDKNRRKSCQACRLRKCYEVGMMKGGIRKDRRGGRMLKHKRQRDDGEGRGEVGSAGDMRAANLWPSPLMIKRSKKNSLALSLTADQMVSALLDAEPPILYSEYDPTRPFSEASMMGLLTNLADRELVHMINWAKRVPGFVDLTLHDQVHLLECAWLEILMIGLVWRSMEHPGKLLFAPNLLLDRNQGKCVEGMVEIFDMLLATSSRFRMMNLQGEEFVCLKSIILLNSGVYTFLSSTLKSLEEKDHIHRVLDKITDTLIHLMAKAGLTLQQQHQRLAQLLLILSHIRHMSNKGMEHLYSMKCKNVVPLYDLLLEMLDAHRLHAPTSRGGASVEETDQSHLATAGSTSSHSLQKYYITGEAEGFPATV

Glucocorticoid receptor = target: T3, Glucocorticoid receptor (Homo sapiens, UniProt P04150); assay: Antagonist activity at glucocorticoid receptor (unknown origin) by NH Pro assay
T3 sequence (P04150 whole entry): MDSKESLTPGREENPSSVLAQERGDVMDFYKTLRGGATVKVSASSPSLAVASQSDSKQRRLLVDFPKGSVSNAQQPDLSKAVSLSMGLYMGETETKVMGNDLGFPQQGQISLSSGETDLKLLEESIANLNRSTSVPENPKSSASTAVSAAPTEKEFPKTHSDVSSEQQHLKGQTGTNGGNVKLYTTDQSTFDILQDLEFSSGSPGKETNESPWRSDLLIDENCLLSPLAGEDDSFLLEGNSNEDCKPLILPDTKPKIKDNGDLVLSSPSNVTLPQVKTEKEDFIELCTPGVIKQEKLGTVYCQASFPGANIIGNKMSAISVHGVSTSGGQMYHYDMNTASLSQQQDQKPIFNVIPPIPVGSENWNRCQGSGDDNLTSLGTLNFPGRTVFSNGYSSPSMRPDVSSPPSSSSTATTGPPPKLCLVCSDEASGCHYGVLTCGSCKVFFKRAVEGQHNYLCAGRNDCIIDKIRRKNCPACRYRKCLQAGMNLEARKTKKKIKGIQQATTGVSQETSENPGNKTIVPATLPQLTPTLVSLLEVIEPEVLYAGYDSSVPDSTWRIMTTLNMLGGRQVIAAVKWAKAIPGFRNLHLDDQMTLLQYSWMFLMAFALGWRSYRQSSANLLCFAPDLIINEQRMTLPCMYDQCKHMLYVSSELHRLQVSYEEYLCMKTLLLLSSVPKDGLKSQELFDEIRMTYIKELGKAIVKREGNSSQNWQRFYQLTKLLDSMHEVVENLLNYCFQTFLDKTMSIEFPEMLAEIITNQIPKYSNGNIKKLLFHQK

Compound	IC50 (Progesterone receptor [1]) [µM]	EC50 (Progesterone receptor [2]) [µM]	EC50 (Estrogen receptor) [µM]	IC50 (Glucocorticoid receptor) [µM]
COc1cc(CNC(=O)[C@@]2(Cc3ccccc3)OC(=O)N([C@@H]3CCc4ccccc43)C2=O)cc(OC)c1	8.1	> 20	> 20	> 20
C[C@H](c1ccc(F)cc1)N1C(=O)O[C@](Cc2ccc(F)cc2)(C(=O)NCc2ccc(Cl)c(Cl)c2)C1=O	3.6	> 20	> 20	11
